In PubChem BioAssay (NCI) one finds TGI data, which are given here for 14 molecules.

The structures appear in SMILES notation.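 Protocol summary: plate cells (96-well), add compound at 5 concentrations, incubate 48 h, interpolate endpoints linearly. TGI: total growth inhibition.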

Holding throughout (assay): NCI tumour cell line growth inhibition, 48 h
Assay [1] concerns HT29 colon.
Assay [2] concerns SK-MEL-2 melanoma.
Assay [3] relates to 786-0 renal.
For assay [4], the system named is UO-31 renal.
In assay [5] the test system is EKVX NSCLC.
For assay [6], the system named is HOP-92 NSCLC.
Assay [7] relates to MOLT-4 leukemia.
Assay [8] has as its system CAKI-1 renal.
For assay [9], the system named is M14 melanoma.
Assay [10] deals with MDA-MB-435.
In assay [11] the test system is NCI-H460 lung.

With `CNC(=O)N(CCC#N)[C@H]1CCCC[C@@H]1N(C(=O)NC)c1ccccc1`, the TGI in [1], in [2], in assay [3], in assay [4], in [5] and in assay [6] was more than 100 µM in each case. The TGI in [7], in assay [8], in assay [9], in assay [10] and in assay [11] was more than 100 µM in each case.
For `Brc1ccc2c(-c3csc(-c4c[nH]c5ccc(Br)cc45)n3)c[nH]c2c1`, the TGI in [1] was found to be 3.35 µM; in assay [2] it was 18.8 µM; in assay [3], 4.71 µM; in [4], 14.4 µM; in [5], 7.15 µM; in assay [6], 9.27 µM. Moreover, the TGI was more than 22.4 µM in [7]; 9.81 µM in assay [8]; 13.3 µM in assay [9]; 17.7 µM in assay [10]; 6.89 µM in assay [11].
Turning to `CCNC(=O)C1CCCN1C(=O)C(CCCN=C(N)N)NC(=O)C(CC(C)C)NC(=O)C(Cc1c[nH]c2ccccc12)NC(=O)C(Cc1ccc(O)cc1)NC(=O)C(CO)NC(=O)C(Cc1c[nH]c2ccccc12)NC(=O)C(Cc1cnc[nH]1)NC(=O)C1CCC(=O)N1` (centres undefined), the TGI in assay [1], in [2], in [3], in assay [4], in assay [5] and in assay [6] was more than 100 µM throughout. Moreover, the TGI in assay [7], in assay [8], in [9], in assay [10] and in assay [11] was more than 100 µM in each case.
As for `CCOn1c(C2(CC3CCN(C(=O)c4ccccc4)CC3)OCCO2)cc2ccccc21`, the TGI in assay [1] turned out to be 34.2 µM; in [2], 32.2 µM; in [3], 30 µM; in assay [4], 26.9 µM; in assay [5] it was 40.1 µM; in assay [6], 23.5 µM. The TGI in assay [7] was found to be 31.3 µM; in assay [8], 30.2 µM; in assay [9] it was 33.6 µM; in [10], 27.4 µM; in [11], 27.1 µM.
Take `CC(C)(C)c1cc(/C=C(\C#N)C(=O)NCCO)cc(C(C)(C)C)c1O`: the TGI in [1] is 51.7 µM; in assay [2] it was 37.4 µM; in assay [3], 48.3 µM; in [4], 49.7 µM; in assay [5], 70.4 µM; in [6] it was more than 100 µM. Moreover, the TGI is 59.1 µM in [7]; 77.6 µM in assay [8]; 31.8 µM in assay [9]; 45 µM in [10]; 43.5 µM in assay [11].
As to `Cc1cn([C@@H]2C[C@H]2CO)c(=O)[nH]c1=O`, the TGI in assay [1], in assay [2], in assay [3], in assay [4], in assay [5] and in [6] was more than 100 µM in each case. For the same molecule, the TGI in [7], in [8], in assay [9], in assay [10] and in assay [11] was more than 100 µM each time.
Consider `CCOC(=O)C(NC(=O)CC(C)C)(N1CCN(c2cc3c(cc2F)c(=O)c(C(=O)O)cn3C2CC2)CC1)C(F)(F)F` (centres undefined), for which the TGI is 91.6 µM in [1]; 53.3 µM in assay [2]; more than 100 µM in [3]; 49.6 µM in [4]; 92.8 µM in assay [5]; 25.3 µM in [6]. Besides, the TGI is 40.2 µM in assay [7]; 74.5 µM in assay [8]; 47.5 µM in assay [9]; 56.5 µM in assay [10]; more than 100 µM in assay [11].
For `CC1CC(=O)Nc2nc3ccccc3n21` (centres undefined), the TGI in assay [1], in assay [2], in assay [3], in assay [4], in assay [5] and in assay [6] was more than 100 µM each time. Also, the TGI in assay [7], in [8], in assay [9], in assay [10] and in [11] was more than 100 µM in each case.
Regarding `NC(N)=NS(=O)(=O)c1ccc(NC(=O)c2ccc3nc4ccccc4c(Nc4ccc(S(=O)(=O)N=C(N)N)cc4)c3c2)cc1`, the TGI in [1], in [2], in assay [3], in assay [4], in assay [5] and in assay [6] was more than 100 µM throughout. Besides, the TGI in assay [7], in assay [8], in assay [9], in assay [10] and in [11] was more than 100 µM in each case.
Regarding `COC(=O)c1ccc(C=Nc2ccc(S(N)(=O)=O)cc2)cc1`, the TGI in [1], in [2], in assay [3], in assay [4], in assay [5] and in assay [6] was more than 100 µM each time. Further, the TGI in assay [7], in assay [8], in assay [9], in assay [10] and in assay [11] was more than 100 µM throughout.
Turning to `Brc1ccc2c(-c3csc(-c4c[nH]c5cc(Br)ccc45)n3)c[nH]c2c1`, the TGI is 29.2 µM in assay [1]; more than 100 µM in [2]; more than 67.3 µM in assay [3]; more than 100 µM in [4]; more than 100 µM in assay [5]; more than 100 µM in [6]. The TGI in assay [7] is more than 62.8 µM; in assay [8], more than 100 µM; in [9], more than 56.5 µM; in assay [10], 17.5 µM; in [11], 53.8 µM.
As to `Cc1cc2ncc3c(=O)n(NS(=O)(=O)c4ccc(N)cc4)ccc3n2n1`, the TGI in assay [1], in assay [2], in assay [3], in assay [4], in assay [5] and in assay [6] was more than 100 µM throughout. Also, the TGI in [7], in assay [8], in [9], in assay [10] and in assay [11] was more than 100 µM throughout.
For `CC1(CNCc2ccccc2)CC(CCc2ccccc2)N(C(=O)c2ccc([N+](=O)[O-])cc2)C1Cc1ccc(O)cc1` (centres undefined), the TGI turned out to be 22 µM in assay [1]; 32.7 µM in assay [2]; 25.9 µM in assay [3]; 23.3 µM in assay [4]; 31 µM in assay [5]; 9.88 µM in assay [6]. Besides, the TGI in assay [7] was more than 100 µM; in assay [8] it was 28.1 µM; in assay [9], 28 µM; in assay [10] it was 28.2 µM; in [11], 30.8 µM.
For `Brc1cc2nn(-c3ccccc3)nc2c2nonc12`, the TGI in assay [1], in assay [2], in assay [3], in assay [4], in assay [5] and in assay [6] was more than 100 µM in each case. Moreover, the TGI in assay [7], in assay [8], in assay [9], in assay [10] and in assay [11] was more than 100 µM each time.
